{"source": "patent EP1200406B1", "about": "“CYCLIC AMIDES AND IMIDES HAVING SELECTIVE ANTAGONIST ACTIVITY AT ALPHA-1D ADRENERGIC RECEPTOR” (RECORDATI INDUSTRIA CHIMICA E FARMACEUTICA S.p.a., priority 1999, dated 2001)", "key": {"[1]": {"tested_on": "conscious rats with partial bladder-outlet obstruction", "assay": "Cystometry in conscious rats with infravesical outflow obstruction by partial urethral ligature", "format": "in vivo, Female Sprague Dawley rats", "details": "0.3 mg/kg i.v.", "procedure": "Effects on cystometric parameters in conscious rats with […] outflow obstruction by partial urethral ligature. Female Sprague Dawley rats of 225-275 g body weight [Crl: CD(SD)BR, from Charles River Italia, Calco, Como] were used. The animals were housed with free access to food and water and maintained on a forced 12 hour alternating light dark cycle at 22-24°C for at least one week, except during experiment performance. In order to obtain a partial obstruction of the urethra, the method previously reported by Malmgren (Malmgren A. et al., J. UroL 137, 1291-1294, 1987; Neurourol. […] Pharmacol. […] The rats were anaesthetised with intraperitoneal (i.p.) administration of 3 ml/kg of Equithensin solution (pentobarbital 1.215 g, chloral hydrate 5.312 g, magnesium sulphate 2.657 g, ethanol 12.5 ml, propylene glycol 49.5 ml, distilled water to 125 ml of final volume) and then the bladder and proximal urethra were exposed via an abdominal midline incision. A silk ligature was placed around the urethra and tied in the presence of an intraluminally placed indwelling polyethylene cannula with an outside diameter of 1.22 mm. After removing the polyethylene cannula, the abdominal wall was sutured and then antibiotic medication (penicillin G 200000 I.U./kg and streptomycin 260 mg/kg i.p.) was performed. After three weeks of obstruction the animals were prepared for cystometry. The animals, anesthetized as reported above, were placed in a supine position and a midline incision was made in the shaved and cleaned abdominal wall. The urinary bladder was exposed and gently freed from adhering tissues, emptied and then cannulated, via an incision at the dome, with a polyethylene cannula (0.58 mm inside diameter and 0.96 mm outside diameter), which was permanently sutured with silk thread. For intravenous bolus injection a similar polyethylene tubing filled with physiological saline containing sodium heparin (40 I.U./ml) was inserted into the jugular vein. The cannulae were exteriorised through a subcutaneous tunnel in the retroscapular area, where they were connected with a plastic adapter, in order to avoid the risk of removal by the animal. Two days after bladder catheter implantation, the animals, fasted overnight, were placed in Bollman's cages or in particular plastic cages which allowed some lateral and back and forth movement of the rats, allowing measurements of micturition volume (MV). After a stabilisation period of 20 minutes, the free tip of the bladder cannula was connected to a pressure transducer and to a peristaltic pump for a continuous infusion of warm saline solution (37° C), into the urinary bladder. In order to shorten the time-period of saline infusion necessary to provoke micturition in the obstructed rats, a filling rate of the bladder of 10 ml/h was chosen. During infusion of saline into the bladder, the intravesical pressure signal and urine volume micturated were continuously recorded on chart polygraph. […] BVC (in ml) was defined as the volume of saline infused into the bladder from the start of the infusion to micturition. […] MV (in ml), defined as the volume of expelled urine during each single micturition, was recorded by means of a force displacement transducer connected to the polygraph and measuring the urine collected in a small reservoir placed under the cage. Basal values of the parameters above reported were evaluated as the mean of the values obtained in two complete and reproducible cystometrograms before treatment (time 0). Then the animals were treated intravenously by bolus injection with the test compound under continuous infusion of saline into the bladder. The parameter changes after compound injection (first cystometrogram and those recorded approximately after 30 and 60 minutes) were compared with the values recorded before injection (basal values)."}, "Rat aorta α1D": {"target": "T1, Rat aorta α1D (Rattus norvegicus, UniProt P23944)", "T1 construct": "from tissue; host or cells: rat thoracic aorta, helicoidal strips", "T1 sequence (P23944 1-561)": "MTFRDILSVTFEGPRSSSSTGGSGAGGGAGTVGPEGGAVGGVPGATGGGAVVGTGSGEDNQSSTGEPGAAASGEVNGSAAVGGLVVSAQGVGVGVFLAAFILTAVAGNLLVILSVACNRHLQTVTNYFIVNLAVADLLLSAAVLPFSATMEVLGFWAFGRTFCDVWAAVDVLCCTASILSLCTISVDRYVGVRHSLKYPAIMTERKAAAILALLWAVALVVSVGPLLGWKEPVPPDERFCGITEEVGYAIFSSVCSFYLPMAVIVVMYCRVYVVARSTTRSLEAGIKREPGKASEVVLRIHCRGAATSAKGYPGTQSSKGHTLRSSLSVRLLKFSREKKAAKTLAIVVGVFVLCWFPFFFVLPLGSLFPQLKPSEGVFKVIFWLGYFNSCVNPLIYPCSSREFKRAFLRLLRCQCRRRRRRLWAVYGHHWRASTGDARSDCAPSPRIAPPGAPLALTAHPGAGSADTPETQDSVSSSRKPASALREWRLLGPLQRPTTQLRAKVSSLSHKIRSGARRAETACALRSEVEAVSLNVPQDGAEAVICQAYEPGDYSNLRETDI", "assay": "Functional antagonism of noradrenaline-induced contraction, rat aorta strips", "format": "cell-based, Sprague Dawley rats", "details": "noradrenaline as agonist, 30 minutes incubation, Schild plot; read-out: Functional affinity pKB, Rat aorta α1D (converted)", "procedure": "In vitro assessment of functional antagonism for α1-adrenoceptor subtypes\nThoracic aorta was obtained from Sprague Dawley rats, cut in helicoidal strips and placed in Krebs solution containing desmethylimipramine (0.1 µM), corticosterone (1 µM), propranol (1 µM) and yohimbine (0.1 µM). The strips were mounted for isotonic tension recording in an organ bath containing the above Krebs buffer enriched and aerated constantly with 95% O2 and 5% CO2, maintained at 37°C and loaded with 1.5 g. After an equilibration period, the strips were primed twice with 10 µM noradrenaline, then concentration/response-to-the-agonist curves were constructed before (basal) and after 30 minutes incubation with single antagonist concentrations (response). The Schild-plot parameters were evaluated by linear-regression analysis according to Tallarida and Murray (Manual of Pharmacologic Calculations with Computer Programs, 53-56, Springer-Verlag)."}}, "data": [{"smiles": "O=C1CC2(CCCC2)CC(=O)N1CCN1CCN(c2cc(Cl)ccc2Cl)CC1", "note": "[Example 1, 8-{2-[4-(2,5-Dichlorophenyl)-1-piperazinyl]-ethyl}-8-azaspiro[4.5]decane-7,9-dione]", "values": [{"measurement": "BVC mean values, change", "setting": "[1]", "result": "20-30%"}, {"measurement": "changes in MP values", "setting": "[1]", "result": "no significant changes"}, {"measurement": "BVC (bladder volume capacity), % changes vs basal values", "setting": "[1]; 30 minutes", "result": 22, "unit": "%"}, {"measurement": "MP (micturition pressure), % changes vs basal values", "setting": "[1]; 30 minutes", "result": -7, "unit": "%"}, {"measurement": "MV (micturition volume), % changes vs basal values", "setting": "[1]; 30 minutes", "result": 42, "unit": "%"}, {"measurement": "NMC – A (non-micturition contractions, amplitude), % changes vs basal values", "setting": "[1]; 30 minutes", "result": -33, "unit": "%"}, {"measurement": "NMC – F (non-micturition contractions, frequency), % changes vs basal values", "setting": "[1]; 30 minutes", "result": -38, "unit": "%"}, {"measurement": "BVC (bladder volume capacity), % changes vs basal values", "setting": "[1]; 60 minutes", "result": 30, "unit": "%"}, {"measurement": "MP (micturition pressure), % changes vs basal values", "setting": "[1]; 60 minutes", "result": -6, "unit": "%"}, {"measurement": "MV (micturition volume), % changes vs basal values", "setting": "[1]; 60 minutes", "result": 28, "unit": "%"}, {"measurement": "NMC – A (non-micturition contractions, amplitude), % changes vs basal values", "setting": "[1]; 60 minutes", "result": -38, "unit": "%"}, {"measurement": "NMC – F (non-micturition contractions, frequency), % changes vs basal values", "setting": "[1]; 60 minutes", "result": -23, "unit": "%"}, {"measurement": "BVC (bladder volume capacity), % changes vs basal values", "setting": "[1]; First cystometrogram", "result": 26, "unit": "%"}, {"measurement": "MP (micturition pressure), % changes vs basal values", "setting": "[1]; First cystometrogram", "result": -2, "unit": "%"}, {"measurement": "MV (micturition volume), % changes vs basal values", "setting": "[1]; First cystometrogram", "result": 35, "unit": "%"}, {"measurement": "NMC – A (non-micturition contractions, amplitude), % changes vs basal values", "setting": "[1]; First cystometrogram", "result": -35, "unit": "%"}, {"measurement": "NMC – F (non-micturition contractions, frequency), % changes vs basal values", "setting": "[1]; First cystometrogram", "result": -24, "unit": "%"}, {"measurement": "frequency and amplitude of the non-voiding contractions", "setting": "[1]; immediately after the injections", "result": "rapid decrease"}, {"measurement": "Kb", "setting": "Rat aorta α1D", "result": 1.02, "unit": "nM"}]}]}
